From patent US20240002416A1 (Rheinische-Friedrich-Wilhelms-Universität Bonn, priority 2020, published 2024)

Tests used:
human MRGPRX4-83L [1] = target: T1, human MRGPRX4-83L (Homo sapiens, UniProt Q96LA9); assay: β-arrestin assay (CHO β-arrestin ARMS1-ProLink 2 human MRGPRX4 83L); type: cell-based; settings: for Emax: efficacy based on maximal effect of 100 nM B-16 (set as 100%), read-out: Emax; for EC50: β-arrestin recruitment, CHO cells, MRGPRX4-83L, read-out: EC50 ± SEM
T1 construct: host or cells: CHO β-arrestin cells
Procedure: (§1) For β-arrestin recruitment assays, recombinant Chinese hamster ovary (CHO) cells expressing the human MRGPRX4 were used (DiscoverX/Eurofins) which allowed to measure β-galactosidase complementation upon β-arrestin recruitment. For calcium mobilization assays, recombinant astrocytes expressing MRGPX4-83L, or LN229 glioblastoma cells natively expressing the MRGPRX4-83S, were used.
(§2) The assays were performed as previously described for other rhodopsin-like GPCRs (Müller, C.E.; 8-Benzamidochromen-4-one-2-carboxylic acids: potent and selective agonists for the orphan G protein-coupled receptor GPR35. J. Med. Chem. 2013, 56:5182-97; Müller, C.E. Molecular Recognition of Agonists and Antagonists by the Nucleotide-Activated G Protein-Coupled P2Y2 Receptor. J. Med. Chem. 2017, 60:8425-8440).

human MRGPRX4-83L [2] = target: T1, human MRGPRX4-83L; assay: Calcium assay (human MRGPRX4 83L), recombinant astrocytes; type: cell-based; settings: for EC50: calcium mobilization, MRGPRX4-83L, read-out: EC50 ± SEM; for Emax: efficacy based on maximal effect of 1 μM B-16 (set as 100%), read-out: Emax
Procedure: as §1, §2

MRGPRX4-83S [3] = target: T2, MRGPRX4-83S (Homo sapiens, UniProt Q96LA9, L83S); assay: β-arrestin assay (CHO β-arrestin human MRGPRX4-83S); type: cell-based; design: host or cells: CHO β-arrestin cells; settings: Table 2; for EC50: β-arrestin recruitment, CHO cells, MRGPRX4-83S, read-out: EC50 ± SEM; for Emax: efficacy based on 100 nM B-16 (set as 100%), read-out: Emax
Procedure: as §1, §2

MRGPRX4-83S [4] = target: T2, MRGPRX4-83S; assay: Calcium assay (human glioblastoma LN229 cells expressing the MRGPRX4-83S); type: cell-based; design: LN229 glioblastoma cells natively expressing the MRGPRX4-83S; endogenous in cells; host or cells: LN229 human glioblastoma cells; settings: Table 2; for EC50: calcium mobilization, LN229 cells, MRGPRX4-83S, read-out: EC50 ± SEM; for Emax: LN-229, efficacy based on 30 μM H-1 (set as 100%), read-out: Emax
Procedure: as §1, §2

[5] = Table 1, means of 3-4 experiments

T1 sequence (Q96LA9 whole entry): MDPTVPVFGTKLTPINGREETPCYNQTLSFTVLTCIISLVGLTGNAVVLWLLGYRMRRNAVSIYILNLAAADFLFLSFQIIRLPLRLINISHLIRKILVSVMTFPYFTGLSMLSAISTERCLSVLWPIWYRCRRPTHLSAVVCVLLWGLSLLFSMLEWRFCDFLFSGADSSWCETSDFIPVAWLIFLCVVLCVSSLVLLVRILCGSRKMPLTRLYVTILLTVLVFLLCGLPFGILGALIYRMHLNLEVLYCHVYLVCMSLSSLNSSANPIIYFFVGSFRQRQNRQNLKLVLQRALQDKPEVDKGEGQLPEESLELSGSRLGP
T2 sequence (Q96LA9 whole entry L83S): as the sequence (Q96LA9 whole entry) above, with L83S counted along it

Row | Emax (human MRGPRX4-83L [1]; Table 1) [%] | EC50 (human MRGPRX4-83L [1]; [5]) [nM] | melting point [°C] | EC50 (human MRGPRX4-83L [2]; Table 1) [nM] | Emax (human MRGPRX4-83L [2]; Table 1) [%] | Emax (human MRGPRX4-83L [1]; Table 4) [%] | EC50 (human MRGPRX4-83L [1]; Table 4) [nM] | EC50 (human MRGPRX4-83L [2]; Table 4) [nM] | Emax (human MRGPRX4-83L [2]; Table 4) [%] | EC50 (MRGPRX4-83S [3]) [nM] | IC50 (human MRGPRX4-83L [1]; Table 1, inhibition of the effect of 2.6 μM B-16) [nM] | EC50 (MRGPRX4-83S [4]) [nM] | IC50 (human MRGPRX4-83L [2]) [nM] | Emax (MRGPRX4-83S [3]) [%] | Emax (MRGPRX4-83S [4]) [%] | Compound
1 | – | – | 146 to 148 | – | – | 96 | 534 ± 170 | 20.1 ± 4.1 | 103 | – | – | – | – | – | – | C#CCn1c(=O)c2c(nc(CCc3ccccc3Br)n2CC)n(CCCCCP(=O)(O)O)c1=O [B-54, (5-(8-(2-Bromophenethyl)-7-ethyl-2,6-dioxo-1-(prop-2-yn-1-yl)-1,2,6,7-tetrahydro-3H-purin-3-yl)pentyl)phosphonic acid]
2 | – | – | 169 to 171 | – | – | 84 | 521 ± 142 | 306 ± 111 | 41 | – | – | – | – | – | – | C#CCn1c(=O)c2c(nc(CCc3ccc(Br)cc3)n2CC)n(CCCCP(=O)(O)O)c1=O [B-35, (4-(8-(4-Bromophenethyl)-7-ethyl-2,6-dioxo-1-(prop-2-yn-1-yl)-1,2,6,7-tetrahydro-3H-purin-3-yl)butyl)phosphonic acid]
3 | – | – | 123 to 125 | – | – | 97 | 6.85 ± 7.18 | 1.16 ± 0.26 | 118 | – | – | – | – | – | – | C#CCn1c(=O)c2c(nc(CCc3ccccc3I)n2C(C)C)n(CCCCP(=O)(O)O)c1=O [B-47, (4-(8-(2-Iodophenethyl)-7-isopropyl-2,6-dioxo-1-(prop-2-yn-1-yl)-1,2,6,7-tetrahydro-3H-purin-3-yl)butyl)phosphonic acid]
4 | – | – | 206 to 208 | – | – | 70 | 2740 ± 580 | 187 ± 39 | 79 | – | – | – | – | – | – | C#CCn1c(=O)c2nc(CCc3ccc(Br)cc3)[nH]c2n(CCCCP(=O)(O)O)c1=O [B-26, (4-(8-(4-Bromophenethyl)-2,6-dioxo-1-(prop-2-yn-1-yl)-1,2,6,9-tetrahydro-3H-purin-3-yl)butyl) phosphonic acid]
5 | – | – | 197 to 199 | – | – | 96 | 262 ± 97 | 15.5 ± 12.5 | 97 | – | – | – | – | – | – | C#CCn1c(=O)c2c(nc(CCc3ccccc3F)n2CC)n(CCCCP(=O)(O)O)c1=O [B-30, (4-(7-Ethyl-8-(2-fluorophenethyl)-2,6-dioxo-1-(prop-2-yn-1-yl)-1,2,6,7-tetrahydro-3H-purin-3-yl)butyl)phosphonic acid]
6 | – | – | 219 to 221 | – | – | 93 | 1890 ± 280 | 604 ± 275 | 61 | – | – | – | – | – | – | C#CCn1c(=O)c2[nH]c(CCc3ccccc3Br)nc2n(CCCCCP(=O)(O)O)c1=O [B-52, (5-(8-(2-Bromophenethyl)-2,6-dioxo-1-(prop-2-yn-1-yl)-1,2,6,7-tetrahydro-3H-purin-3-yl)pentyl)phosphonic acid]
7 | – | – | 138 to 140 | – | – | – | – | – | – | – | – | – | – | – | – | C#CCn1c(=O)c2c(nc(Cc3cccc4ccccc34)n2CC)n(CCCCP(=O)(O)O)c1=O [B-58, (4-(7-Ethyl-8-(naphthalen-1-ylmethyl)-2,6-dioxo-1-(prop-2-yn-1-yl)-1,2,6,7-tetrahydro-3H-purin-3-yl)butyl)phosphonic acid]
8 | – | – | 110 to 112 | – | – | 94 | 1070 ± 350 | 15.5 ± 1 | 113 | – | – | – | – | – | – | C#CCn1c(=O)c2c(nc(CCc3ccccc3Br)n2C)n(CCCCCP(=O)(O)O)c1=O [B-53, (5-(8-(2-Bromophenethyl)-7-methyl-2,6-dioxo-1-(prop-2-yn-1-yl)-1,2,6,7-tetrahydro-3H-purin-3-yl)pentyl)phosphonic acid]
9 | – | > 10000 | – | > 10000 | – | – | – | – | – | > 10000 | > 10000 | > 10000 | > 10000 | – | – | C#CCn1c(=O)c2[nH]c(/C=C/c3cccc(OC)c3)nc2n(CCCOP(=O)(O)O)c1=O [H-3, (E)-3-(8-(3-Methoxystyryl)-2,6-dioxo-1-(prop-2-yn-1-yl)-1,2,6,7-tetrahydro-3H-purin-3-yl)propyl dihydrogen phosphate, reference compound]

The remaining lines, values behind:

Row | Compound | Emax (human MRGPRX4-83L [1]; Table 1) [%] | EC50 (human MRGPRX4-83L [1]; [5]) [nM] | melting point [°C] | EC50 (human MRGPRX4-83L [2]; Table 1) [nM] | Emax (human MRGPRX4-83L [2]; Table 1) [%] | Emax (human MRGPRX4-83L [1]; Table 4) [%] | EC50 (human MRGPRX4-83L [1]; Table 4) [nM] | EC50 (human MRGPRX4-83L [2]; Table 4) [nM] | Emax (human MRGPRX4-83L [2]; Table 4) [%] | EC50 (MRGPRX4-83S [3]) [nM] | IC50 (human MRGPRX4-83L [1]; Table 1, inhibition of the effect of 2.6 μM B-16) [nM] | EC50 (MRGPRX4-83S [4]) [nM] | IC50 (human MRGPRX4-83L [2]) [nM] | Emax (MRGPRX4-83S [3]) [%] | Emax (MRGPRX4-83S [4]) [%]
10 | C#CCn1c(=O)c2c(nc(CCc3ccccc3Br)n2CC)n(CCCCP(=O)(O)O)c1=O [B-19, (4-(8-(2-Bromophenethyl)-7-ethyl-2,6-dioxo-1-(prop-2-yn-1-yl)-1,2,6,7-tetrahydro-3H-purin-3-yl)butyl)phosphonic acid] | 144 | 25.9 ± 7.9 | 192 to 195 | 4.26 ± 0.56 | 115 | – | – | – | – | – | – | – | – | – | –
11 | C#CCn1c(=O)c2[nH]c(CCc3ccccc3F)nc2n(CCCCP(=O)(O)O)c1=O [B-24, (4-(8-(2-Fluorophenethyl)-2,6-dioxo-1-(prop-2-yn-1-yl)-1,2,6,7-tetrahydro-3H-purin-3-yl)butyl) phosphonic acid] | – | – | 239 to 241 | – | – | 98 | 8190 ± 1810 | 1420 ± 290 | 100 | – | – | – | – | – | –
12 | C#CCn1c(=O)c2c(nc(CCc3ccccc3Br)n2CCC)n(CCCCP(=O)(O)O)c1=O [B-22, (4-(8-(2-Bromophenethyl)-2,6-dioxo-1-(prop-2-yn-1-yl)-7-propyl-1,2,6,7-tetrahydro-3H-purin-3-yl)butyl)phosphonic acid] | 176 | 208 ± 49 | 178 to 181 | 17.8 ± 6.2 | 119 | – | – | – | – | – | – | – | – | – | –
13 | C#CCn1c(=O)c2c(nc(CCc3ccccc3Br)n2CC2CC2)n(CCCCP(=O)(O)O)c1=O [B-21, (4-(8-(2-Bromophenethyl)-7-(cyclopropylmethyl)-2,6-dioxo-1-(prop-2-yn-1-yl)-1,2,6,7-tetrahydro-3H-purin-3-yl)butyl)phosphonic acid] | 163 | 89.8 ± 20.9 | 181 to 184 | 2.02 ± 0.62 | 109 | – | – | – | – | – | – | – | – | – | –
14 | C#CCn1c(=O)c2c(nc(CCc3ccccc3Br)n2Cc2ccccc2)n(CCCCP(=O)(O)O)c1=O [B-23, (4-(7-Benzyl-8-(2-bromophenethyl)-2,6-dioxo-1-(prop-2-yn-1-yl)-1,2,6,7-tetrahydro-3H-purin-3-yl)butyl)phosphonic acid] | 164 | 59.9 ± 12.8 | 126 to 129 | 5.03 ± 1.59 | 103 | – | – | – | – | – | – | – | – | – | –
15 | C#CCn1c(=O)c2[nH]c(CCc3ccccc3I)nc2n(CCCCP(=O)(O)O)c1=O [B-25, (4-(8-(2-Iodophenethyl)-2,6-dioxo-1-(prop-2-yn-1-yl)-1,2,6,7-tetrahydro-3H-purin-3-yl)butyl) phosphonic acid] | – | – | 227 to 229 | – | – | 96 | 381 ± 112 | 43.1 ± 9.4 | 103 | – | – | – | – | – | –
16 | C#CCn1c(=O)c2c(nc(CCc3ccccc3Br)n2CCO)n(CCCCP(=O)(O)O)c1=O [B-20, (4-(8-(2-Bromophenethyl)-7-(2-hydroxyethyl)-2,6-dioxo-1-(prop-2-yn-1-yl)-1,2,6,7-tetrahydro-3H-purin-3-yl)butyl)phosphonic acid] | 124 | 32.9 ± 7.5 | 157 to 160 | 1.86 ± 0.45 | 103 | – | – | – | – | – | – | – | – | – | –
17 | COc1cccc(CCc2nc3c([nH]2)c(=O)n(CC2CCC2)c(=O)n3CCCCP(=O)(O)O)c1 [B-13, (4-(1-(Cyclobutylmethyl)-8-(3-methoxyphenethyl)-2,6-dioxo-1,2,6,7-tetrahydro-3H-purin-3-yl)butyl)phosphonic acid] | 96 | 48300 ± 14100 | – | 1600 ± 460 | 94 | – | – | – | – | 68.9 ± 17 | – | 59.9 ± 10.7 | – | 93 | 91
18 | C#CCn1c(=O)c2c(nc(CCc3cccc(OC)c3)n2C)n(CCCCP(=O)(O)O)c1=O [B-15, (4-(8-(3-Methoxyphenethyl)-7-methyl-2,6-dioxo-1-(prop-2-yn-1-yl)-1,2,6,7-tetrahydro-3H-purin-3-yl)butyl)phosphonic acid] | 141 | 6280 ± 1380 | – | 333 ± 7 | 113 | – | – | – | – | 30 ± 5.8 | – | 19.2 ± 3.5 | – | 140 | 132
19 | C#CCn1c(=O)c2[nH]c(CCc3cccc(OC)c3)nc2n(CCCCP(=O)(O)O)c1=O [B-2, (4-(8-(3-Methoxyphenethyl)-2,6-dioxo-1-(prop-2-yn-1-yl)-1,2,6,7-tetrahydro-3H-purin-3-yl)butyl)phosphonic acid] | 91 | 5710 ± 1230 | – | 435 ± 78 | 102 | – | – | – | – | 32 ± 11 | – | 11.2 ± 1.3 | – | 98 | 99
